The text below walks through data of BindingDB's records for PubMed 7915318 (Ohio State University, 1994).

pKi: −log10 of the molar value. Values joined by “and” are separate entries in the source; they are usually repeats but may differ in a detail not shown here. Equal entries are not always repeated.

Sequence of Beta-2 adrenergic receptor (Cavia porcellus, UniProt Q8K4Z4) (Q8K4Z4 whole entry): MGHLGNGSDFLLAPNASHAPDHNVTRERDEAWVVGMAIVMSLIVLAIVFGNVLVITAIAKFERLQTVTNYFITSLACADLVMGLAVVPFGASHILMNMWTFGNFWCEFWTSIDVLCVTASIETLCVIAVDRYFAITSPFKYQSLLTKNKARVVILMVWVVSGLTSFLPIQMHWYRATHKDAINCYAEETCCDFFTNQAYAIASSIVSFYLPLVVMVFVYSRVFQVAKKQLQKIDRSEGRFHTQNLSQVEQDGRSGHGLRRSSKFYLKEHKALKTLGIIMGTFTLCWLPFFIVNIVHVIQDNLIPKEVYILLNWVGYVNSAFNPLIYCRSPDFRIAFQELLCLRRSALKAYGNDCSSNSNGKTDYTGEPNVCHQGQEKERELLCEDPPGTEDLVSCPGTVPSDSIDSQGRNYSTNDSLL
Sequence of Beta-1 adrenergic receptor (Homo sapiens, UniProt P08588) (P08588 whole entry): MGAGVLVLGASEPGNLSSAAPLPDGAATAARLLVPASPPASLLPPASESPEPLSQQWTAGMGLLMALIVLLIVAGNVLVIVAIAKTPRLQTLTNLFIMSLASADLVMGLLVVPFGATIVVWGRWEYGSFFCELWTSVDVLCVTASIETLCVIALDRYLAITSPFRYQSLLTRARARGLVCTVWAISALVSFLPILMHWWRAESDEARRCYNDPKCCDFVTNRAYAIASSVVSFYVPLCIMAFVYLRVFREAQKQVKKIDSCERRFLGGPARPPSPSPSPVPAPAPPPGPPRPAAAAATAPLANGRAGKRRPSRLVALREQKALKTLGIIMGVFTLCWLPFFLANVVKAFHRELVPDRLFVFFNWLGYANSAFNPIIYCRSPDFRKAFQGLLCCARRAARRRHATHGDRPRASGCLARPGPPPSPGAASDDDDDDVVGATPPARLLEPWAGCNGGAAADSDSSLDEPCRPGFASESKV

In the first test the target is Beta-2 adrenergic receptor (Homo sapiens, UniProt P07550).
Sequence of Beta-2 adrenergic receptor (Homo sapiens, UniProt P07550) (P07550 whole entry): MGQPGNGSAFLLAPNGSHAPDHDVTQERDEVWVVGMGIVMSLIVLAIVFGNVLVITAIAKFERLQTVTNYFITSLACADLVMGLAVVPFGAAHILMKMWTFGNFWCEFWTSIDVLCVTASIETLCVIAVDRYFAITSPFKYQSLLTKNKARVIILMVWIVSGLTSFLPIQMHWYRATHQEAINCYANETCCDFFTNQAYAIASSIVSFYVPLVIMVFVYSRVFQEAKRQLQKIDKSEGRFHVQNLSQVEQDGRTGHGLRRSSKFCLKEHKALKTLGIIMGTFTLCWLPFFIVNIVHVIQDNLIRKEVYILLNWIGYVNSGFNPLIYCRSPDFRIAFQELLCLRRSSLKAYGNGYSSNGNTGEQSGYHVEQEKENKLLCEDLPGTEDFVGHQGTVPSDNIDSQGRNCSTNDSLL
`COc1cc(CC2NCCc3cc(O)c(O)c(F)c32)cc(OC)c1OC` (racemic) [NSC_128658] had a negative logarithm of the Ki (pKi) of 8.06.
On the same count and under the same terms, the result for `COc1c(I)cc(CC2NCCc3cc(O)c(O)cc32)cc1I` (stereo unspecified) [TMQ, 3',5'-Diiodo] reads 9.24 and 9.13; that for `COc1cc(CC2NCCc3cc(O)c(O)cc32)cc(N)c1OC` (stereo unspecified) [TMQ, 3'-Amino], 6.85; that for `COc1cc(CC2NCCc3cc(O)c(O)cc32)cc(I)c1OC` (stereo unspecified) [TMQ, 3'-Iodo], 8.57 and 8.77.
Still for that read-out and setting: the result for `COc1cc(CC2NCCc3cc(O)c(O)cc32)cc([N+](=O)[O-])c1OC` (stereo unspecified) [TMQ, 3'-Nitro] reads 7.33; that for `COc1cc(CC2NCCc3c(F)c(O)c(O)c(F)c32)cc(OC)c1OC` (stereo unspecified) [TMQ, 5,8-Difluoro], 8.06 and 8.21.
`COc1cc(CC2NCCc3c2cc(O)c(O)c3I)cc(OC)c1OC` (stereo unspecified) [TMQ, 5-Iodo] showed a pKi of 7.99.
On the same count and under the same terms, the result for `COc1cc(CC2NCCc3cc(O)c(O)c(I)c32)cc(OC)c1OC` (stereo unspecified) [TMQ, 8-Iodo] reads 6.12 and 6.36.
On the same count and under the same terms, with `COc1cc(CC2c3cc(O)c(O)cc3CCN2Cc2cccc(N)c2)cc(OC)c1OC` (stereo unspecified) [TMQ, N-amino-benzyl] the figure was 6.03; with `COc1cc(C[C@H]2NCCc3cc(O)c(O)c(F)c32)cc(OC)c1OC` [TMQ, R-(-)-8-Fluoro], 6.36; with `COc1cc(C[C@@H]2NCCc3cc(O)c(O)c(F)c32)cc(OC)c1OC` [TMQ, S-(+)-8-Fluoro], 7.99.

Another test concerns the target Beta-1 adrenergic receptor (Homo sapiens, UniProt P08588).
`COc1cc(CC2NCCc3cc(O)c(O)c(F)c32)cc(OC)c1OC` (racemic) [NSC_128658] had a pKi of 7.43.
In turn, `COc1cc(CC2NCCc3cc(O)c(O)cc32)cc(N)c1OC` (stereo unspecified) [TMQ, 3'-Amino] had a negative-log Ki (pKi) of 6.67.
In the case of `COc1cc(CC2NCCc3cc(O)c(O)cc32)cc(I)c1OC` (stereo unspecified) [TMQ, 3'-Iodo], the negative logarithm of the Ki (pKi) is 7.90.
On the same count and under the same terms, with `COc1cc(CC2NCCc3cc(O)c(O)cc32)cc([N+](=O)[O-])c1OC` (stereo unspecified) [TMQ, 3'-Nitro] the figure was 7.83; with `COc1cc(CC2NCCc3c(F)c(O)c(O)c(F)c32)cc(OC)c1OC` (stereo unspecified) [TMQ, 5,8-Difluoro], 8.13; with `COc1cc(C[C@H]2NCCc3cc(O)c(O)c(F)c32)cc(OC)c1OC` [TMQ, R-(-)-8-Fluoro], 6.38.
Still for that read-out and setting: with `COc1cc(C[C@@H]2NCCc3cc(O)c(O)c(F)c32)cc(OC)c1OC` [TMQ, S-(+)-8-Fluoro] the figure was 7.17.

Another test addresses Beta-2 adrenergic receptor (Cavia porcellus, UniProt Q8K4Z4).
Turning to `COc1cc(CC2NCCc3cc(O)c(O)cc32)cc(OC)c1OC` (stereo unspecified) [1-(3,4,5-Trimethoxy-benzyl)-1,2,3,4-tetrahydro-isoquinoline-6,7-diol], the pKi was 6.98 and 7.64.
The same measure, in the same setting: the result for `COc1cc(C[C@@H]2NCCc3cc(O)c(O)cc32)cc(OC)c1OC` [CAS_65772] reads 7.56 and 8.01; that for `CC(C)NCC(O)c1ccc(O)c(O)c1` (stereo not drawn) [Isoproterenol,(+)], 6.49 and 6.97; that for `CC(C)NCC(O)COc1cccc2[nH]ccc12` (stereo unspecified) [LB-46], 8.58 and 8.94.
On the same count and under the same terms, the result for `COc1c(I)cc(CC2NCCc3cc(O)c(O)cc32)cc1I` (stereo unspecified) [TMQ, 3',5'-Diiodo] reads 8.55 and 9.01; that for `COc1cc(CC2NCCc3cc(O)c(O)cc32)cc(N)c1OC` (stereo unspecified) [TMQ, 3'-Amino], 6.31 and 7.01.
On to `COc1cc(CC2NCCc3cc(O)c(O)cc32)cc(I)c1OC` (stereo unspecified) [TMQ, 3'-Iodo], for which the pKi is 8.96 and 8.63.
Turning to `COc1cc(CC2NCCc3cc(O)c(O)cc32)cc([N+](=O)[O-])c1OC` (stereo unspecified) [TMQ, 3'-Nitro], the pKi is 7.96 and 8.56.
Same read-out and setting: the result for `COc1cc(CC2NCCc3c(F)c(O)c(O)c(F)c32)cc(OC)c1OC` (stereo unspecified) [TMQ, 5,8-Difluoro] reads 8.18 and 8.37; that for `COc1cc(CC2NCCc3c2cc(O)c(O)c3I)cc(OC)c1OC` (stereo unspecified) [TMQ, 5-Iodo], 7.43 and 7.94.
Same read-out and setting: the result for `COc1cc(CC2NCCc3c2cc(O)c(O)c3C(F)(F)F)cc(OC)c1OC` (stereo unspecified) [TMQ, 5-TrifluoroMe] reads 5.93 and 6.04.
The same measure, in the same setting: the result for `COc1cc(CC2NCCc3cc(O)c(O)c(I)c32)cc(OC)c1OC` (stereo unspecified) [TMQ, 8-Iodo] reads 6.44 and 6.42.
As for `COc1cc(CC2=NCCc3cc(O)c(O)cc32)cc(OC)c1OC` [TMQ, Amidine], the pKi was less than 5.00.
Same read-out and setting: the result for `COc1cc(CC2NCCc3cc(O)c(O)cc32)cc2c1OS(=O)O2` (stereo unspecified) [TMQ, Cyclic sulfite] reads 5.46 and 5.71; that for `COc1cc(CC2c3cc(O)c(O)cc3CCN2Cc2cccc(N)c2)cc(OC)c1OC` (stereo unspecified) [TMQ, N-amino-benzyl], 5.43 and 5.88.
The same measure, in the same setting: the result for `COc1cc(CC2c3cc(O)c(O)cc3CCN2Cc2cccc(Cl)c2)cc(OC)c1OC` (stereo unspecified) [TMQ, N-chloro-benzyl] reads 5.90; that for `COc1cc(CC2c3cc(O)c(O)cc3CCN2Cc2ccc(Cl)c(Cl)c2)cc(OC)c1OC` (stereo unspecified) [TMQ, N-dichlorobenzyl], 5.73; that for `COc1cc(CC2c3cc(O)c(O)cc3CCN2CCO)cc(OC)c1OC` (stereo unspecified) [TMQ, N-hydroxyethyl], 5.56.
Consider `COc1cc(CC2c3cc(O)c(O)cc3CCN2C)cc(OC)c1OC` (stereo unspecified) [TMQ, N-methyl], for which the negative-log Ki (pKi) was 6.07.
On the same count and under the same terms, with `COc1cc(CC2c3cc(O)c(O)cc3CCN2Cc2cccc([N+](=O)[O-])c2)cc(OC)c1OC` (stereo unspecified) [TMQ, N-nitro-benzyl] the figure was 5.79 and 5.83; with `COc1cc(C[C@H]2NCCc3cc(O)c(O)cc32)cc(OC)c1OC` [TMQ, R-(+)], < 5.00 and 5.03.

The next test deals with Beta-1 adrenergic receptor (Cavia porcellus, UniProt B0FL73).
Sequence of Beta-1 adrenergic receptor (Cavia porcellus, UniProt B0FL73) (B0FL73 whole entry): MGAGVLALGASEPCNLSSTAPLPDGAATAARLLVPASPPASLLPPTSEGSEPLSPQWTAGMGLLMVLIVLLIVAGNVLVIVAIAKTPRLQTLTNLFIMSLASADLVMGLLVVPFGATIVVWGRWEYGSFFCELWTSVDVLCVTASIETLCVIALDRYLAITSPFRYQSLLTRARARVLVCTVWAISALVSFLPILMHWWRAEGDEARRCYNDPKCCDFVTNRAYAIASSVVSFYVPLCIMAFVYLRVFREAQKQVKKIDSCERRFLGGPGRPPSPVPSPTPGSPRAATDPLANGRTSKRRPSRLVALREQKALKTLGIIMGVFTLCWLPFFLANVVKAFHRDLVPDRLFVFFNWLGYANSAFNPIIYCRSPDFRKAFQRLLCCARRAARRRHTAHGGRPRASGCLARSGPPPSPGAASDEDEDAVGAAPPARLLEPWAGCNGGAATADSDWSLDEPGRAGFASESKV
In the case of `CC(C)(C)NCC(O)c1cc(O)cc(O)c1` (racemic) [Terbutaline,(+/-)], the pKi was less than 5.00.
The same measure, in the same setting: with `COc1cc(C[C@@H]2NCCc3cc(O)c(O)cc32)cc(OC)c1OC` [CAS_65772] the figure was 6.96; with `CC(C)NCC(O)COc1cccc2[nH]ccc12` (stereo unspecified) [LB-46], 8.14; with `COc1c(I)cc(CC2NCCc3cc(O)c(O)cc32)cc1I` (stereo unspecified) [TMQ, 3',5'-Diiodo], 7.98.
The same measure, in the same setting: the result for `COc1cc(CC2NCCc3cc(O)c(O)cc32)cc(N)c1OC` (stereo unspecified) [TMQ, 3'-Amino] reads 6.34; that for `COc1cc(CC2NCCc3cc(O)c(O)cc32)cc(I)c1OC` (stereo unspecified) [TMQ, 3'-Iodo], 8.00; that for `COc1cc(CC2NCCc3cc(O)c(O)cc32)cc([N+](=O)[O-])c1OC` (stereo unspecified) [TMQ, 3'-Nitro], 7.50.
On to `COc1cc(CC2NCCc3c(F)c(O)c(O)c(F)c32)cc(OC)c1OC` (stereo unspecified) [TMQ, 5,8-Difluoro], for which the pKi is 7.46.
Still for that read-out and setting: the result for `COc1cc(CC2NCCc3c2cc(O)c(O)c3I)cc(OC)c1OC` (stereo unspecified) [TMQ, 5-Iodo] reads 7.47; that for `COc1cc(CC2NCCc3c2cc(O)c(O)c3C(F)(F)F)cc(OC)c1OC` (stereo unspecified) [TMQ, 5-TrifluoroMe], 5.96.
Still for that read-out and setting: the result for `COc1cc(CC2NCCc3cc(O)c(O)c(I)c32)cc(OC)c1OC` (stereo unspecified) [TMQ, 8-Iodo] reads 6.20.
On the same count and under the same terms, the result for `COc1cc(CC2NCCc3cc(O)c(O)cc32)cc2c1OS(=O)O2` (stereo unspecified) [TMQ, Cyclic sulfite] reads less than 5.00.
The compound `COc1cc(CC2c3cc(O)c(O)cc3CCN2Cc2ccccc2)cc(OC)c1OC` (stereo unspecified) [TMQ, N-benzyl] showed a negative-log Ki (pKi) of 5.96.
Same read-out and setting: the result for `COc1cc(CC2c3cc(O)c(O)cc3CCN2Cc2cccc(Cl)c2)cc(OC)c1OC` (stereo unspecified) [TMQ, N-chloro-benzyl] reads 5.21; that for `COc1cc(CC2c3cc(O)c(O)cc3CCN2Cc2ccc(Cl)c(Cl)c2)cc(OC)c1OC` (stereo unspecified) [TMQ, N-dichlorobenzyl], 5.45; that for `COc1cc(CC2c3cc(O)c(O)cc3CCN2CCO)cc(OC)c1OC` (stereo unspecified) [TMQ, N-hydroxyethyl], 5.27.
`COc1cc(C[C@H]2NCCc3cc(O)c(O)cc32)cc(OC)c1OC` [TMQ, R-(+)] gave a pKi of less than 5.00.

One may read the pKi as −log10 of the Ki, conventionally taken in molar units. A lower pKi goes with a high Ki.
